Marks after values point to notes of the source that are not given here.
Columns and labels:
[1] = system: subjects who completed REDUCE-1 or REDUCE-2 without ulcer; details: human, in vivo, 28 weeks
[2] = system: subjects who completed REDUCE-1 or REDUCE-2 without ulcer; assay: Follow-on safety study (28 weeks) after REDUCE-1 or REDUCE-2: adverse events
[3] = system: subjects expected to require daily NSAID therapy; assay: REDUCE-2 study: endoscopically diagnosed UGI, gastric and duodenal ulcers; assay type: in vivo, human
Protocol: Subjects were deemed a treatment failure and terminated early from the study in the event they developed an endoscopically diagnosed UGI ulcer. Subjects who terminated early for reasons other than development of an endoscopically diagnosed UGI ulcer were to undergo an endoscopic examination at a termination visit that was conducted as soon as possible after administration of their final dose of study drug. The predefined population for primary analyses of ulcers was all subjects with ≧1 follow-up study endoscopy.

[4] = TEAE, follow-on study, Preferred Term
[5] = TEAE, follow-on study, System Organ Class
[6] = REDUCE-2, 24 weeks, crude proportion
[7] = REDUCE-2, 24 weeks, crude proportion, listed as ibuprofen
[8] = REDUCE-2, 24 weeks, life table estimate
[9] = REDUCE-2, 24 weeks, life table estimate, listed as ibuprofen
[10] = REDUCE-2, early terminations imputed as having an ulcer

**Q.** Which results are given for `CC(C)Cc1ccc(C(C)C(=O)O)cc1` (stereo not drawn) [Ibuprofen, 2-(p-isobutylphenyl)propionic acid]?
**A.** Viral infection [1]: 2.1 (1) % (n); AEs Leading to Discontinuation, Incidence (%) ([2]; Follow-on Study): 2.1%; AEs by Relatedness: Possibly Related, Incidence (%) ([2]; Follow-on Study): 8.5%; AEs by Relatedness: Probably Not Related, Incidence (%) ([2]; Follow-on Study): 25.5%; AEs by Severity: Life Threatening, Incidence (%) ([2]; Follow-on Study): 0.0%; AEs by Severity: Mild, Incidence (%) ([2]; Follow-on Study): 10.6%; AEs by Severity: Moderate, Incidence (%) ([2]; Follow-on Study): 19.1%; AEs by Severity: Severe, Incidence (%) ([2]; Follow-on Study): 4.3%; Abdominal Pain Upper, Incidence (%) ([2]; Follow-on Study): 0.0 (0) %; Abdominal Tenderness, Incidence % ([2]; Follow-on Study): 2.1 (0) %; Any GI Event, Incidence (%) ([2]; Follow-on Study): 4.3 (2)* %; Constipation, Incidence (%) ([2]; Follow-on Study): 0.0 (0) %; Deaths, Incidence % ([2]; Follow-on Study): 0.0(0) %; Diarrhea, Incidence (%) ([2]; Follow-on Study): 2.1 (1) %; Dyspepsia, Incidence (%) ([2]; Follow-on Study): 0.0 (0) %; General Disorders/Administrative Site Conditions, Incidence (%) ([2]; Follow-on Study): 4.3(2) %; Hepatobiliary Disorders, Incidence (%) ([2]; Follow-on Study): 2.1(1) %; Hypertension, Incidence (%) ([2]; Follow-on Study): 0.0(0) %; Infections/Infestations, Incidence (%) ([2]; Follow-on Study): 14.9(7) %; Injury, Poisoning, Procedural Complications, Incidence (%) ([2]; Follow-on Study): 4.3(2) %; Metabolism and Nutrition Disorders, Incidence % ([2]; Follow-on Study): 8.5(4)* %; Musculoskeletal/connective Tissue Disorders, Incidence (%) ([2]; Follow-on Study): 2.1(1) %; Nausea, Incidence (%) ([2]; Follow-on Study): 0.0 (0) %; Nervous System Disorders, Incidence (%) ([2]; Follow-on Study): 4.3(2) %; Respiratory, Thoracic and Mediastinal Disorders, Incidence (%) ([2]; Follow-on Study): 2.1(1) %; SAEs leading to discontinuation, Incidence % ([2]; Follow-on Study): 0.0(0) %; Subjects with at least one AE, Incidence (%) ([2]; Follow-on Study): 34.0%; Total SAEs, Incidence % ([2]; Follow-on Study): 4.3(2) %; Withdrawals due to GI, Incidence (%) ([2]; Follow-on Study): 0.0 (0) %; Abdominal discomfort [2, 4]: 2.1 (1) % (n); Abdominal distension [2, 4]: 0.0 (0) % (n); Abdominal pain [2, 4]: 2.1 (1) % (n); Abdominal pain upper [2, 4]: 2.1 (1) % (n); Abdominal tenderness [2, 4]: 2.1 (1) % (n); Accidental overdose [2, 4]: 2.1 (1) % (n); Anaemia [2, 4]: 2.1 (1) % (n); Animal bite [2, 4]: 0.0 (0) % (n); Anxiety [2, 4]: 2.1 (1) % (n); Arthralgia [2, 4]: 4.3 (2) % (n); Asthma [2, 4]: 0.0 (0) % (n); Back pain [2, 4]: 0.0 (0) % (n); Blood creatinine increased [2, 4]: 0.0 (0) % (n); Blood pressure increased [2, 4]: 0.0 (0) % (n); Bronchitis [2, 4]: 2.1 (1) % (n); Bronchitis acute [2, 4]: 2.1 (1) % (n); Carpal tunnel syndrome [2, 4]: 0.0 (0) % (n); Cataract [2, 4]: 2.1 (1) % (n); Cholelithiasis [2, 4]: 2.1 (1) % (n); Conjunctivitis [2, 4]: 2.1 (1) % (n); Constipation [2, 4]: 4.3 (2) % (n); Contusion [2, 4]: 2.1 (1) % (n); Cough [2, 4]: 0.0 (0) % (n); Dermatitis [2, 4]: 2.1 (1) % (n); Dermatitis contact [2, 4]: 2.1 (1) % (n); Diabetes mellitus [2, 4]: 2.1 (1) % (n); Diabetes mellitus non-insulin-dependent [2, 4]: 2.1 (1) % (n); Diarrhoea [2, 4]: 8.5 (4) % (n); Dizziness [2, 4]: 2.1 (1) % (n); Dyspepsia [2, 4]: 2.1 (1) % (n); Ear infection [2, 4]: 2.1 (1) % (n); Eczema [2, 4]: 2.1 (1) % (n); Fall [2, 4]: 2.1 (1) % (n); Flatulence [2, 4]: 2.1 (1) % (n); Folliculitis [2, 4]: 2.1 (1) % (n); Foot fracture [2, 4]: 2.1 (1) % (n); Gait disturbance [2, 4]: 2.1 (1) % (n); Gastritis [2, 4]: 2.1 (1) % (n); Gastroenteritis [2, 4]: 0.0 (0) % (n); Gastroenteritis viral [2, 4]: 4.3 (2) % (n); Gastrooesophageal reflux disease [2, 4]: 2.1 (1) % (n); Headache [2, 4]: 0.0 (0) % (n); Hypercholesterolaemia [2, 4]: 2.1 (1) % (n); Hyperglycaemia [2, 4]: 2.1 (1) % (n); Hyperlipidaemia [2, 4]: 2.1 (1) % (n); Hyperosmolar state [2, 4]: 2.1 (1) % (n); Hypertension [2, 4]: 2.1 (1) % (n); Influenza [2, 4]: 2.1 (1) % (n); Intestinal spasm [2, 4]: 2.1 (1) % (n); Joint injury [2, 4]: 2.1 (1) % (n); Joint sprain [2, 4]: 2.1 (1) % (n); Joint swelling [2, 4]: 2.1 (1) % (n); Knee deformity [2, 4]: 2.1 (1) % (n); Laryngitis [2, 4]: 4.3 (2) % (n); Limb crushing injury [2, 4]: 2.1 (1) % (n); Lower respiratory tract infection [2, 4]: 4.3 (2) % (n); Migraine [2, 4]: 2.1 (1) % (n); Mood swings [2, 4]: 2.1 (1) % (n); Muscle spasms [2, 4]: 0.0 (0) % (n); Musculoskeletal pain [2, 4]: 4.3 (2) % (n); Nasopharyngitis [2, 4]: 2.1 (1) % (n); Nausea [2, 4]: 4.3 (2) % (n); Neck injury [2, 4]: 2.1 (1) % (n); Neck pain [2, 4]: 2.1 (1) % (n); Nerve compression [2, 4]: 2.1 (1) % (n); Non-cardiac chest pain [2, 4]: 2.1 (1) % (n); Oedema peripheral [2, 4]: 6.4 (3) % (n); Oesophageal stenosis [2, 4]: 2.1 (1) % (n); Otitis media [2, 4]: 0.0 (0) % (n); Pharyngolaryngeal pain [2, 4]: 2.1 (1) % (n); Plantar fasciitis [2, 4]: 2.1 (1) % (n); Pneumonia [2, 4]: 2.1 (1) % (n); Rib fracture [2, 4]: 4.3 (2) % (n); Road traffic accident [2, 4]: 2.1 (1) % (n); Sinusitis [2, 4]: 2.1 (1) % (n); Skin laceration [2, 4]: 2.1 (1) % (n); Stomach discomfort [2, 4]: 0.0 (0) % (n); Swelling face [2, 4]: 0.0 (0) % (n); Tendon injury [2, 4]: 0.0 (0) % (n); Tendonitis [2, 4]: 2.1 (1) % (n); Throat irritation [2, 4]: 2.1 (1) % (n); Tinnitus [2, 4]: 2.1 (1) % (n); Tooth abscess [2, 4]: 0.0 (0) % (n); Tooth infection [2, 4]: 2.1 (1) % (n); Toothache [2, 4]: 2.1 (1) % (n); Traumatic brain injury [2, 4]: 2.1 (1) % (n); Upper respiratory tract infection [2, 4]: 6.4 (3) % (n); Urinary tract infection [2, 4]: 0.0 (0) % (n); Urticaria [2, 4]: 2.1 (1) % (n); Viral upper respiratory tract infection [2, 4]: 2.1 (1) % (n); Vomiting [2, 4]: 4.3 (2) % (n); Wheezing [2, 4]: 0.0 (0) % (n); Ear and labyrinth disorders [2, 5]: 2.1 (1) % (n); Eye disorders [2, 5]: 4.3 (2) % (n); Gastrointestinal disorders [2, 5]: 23.4 (11) % (n); General disorders and administration site conditions [2, 5]: 6.4 (3) % (n); Hepatobiliary disorders [2, 5]: 2.1 (1) % (n); Immune system disorders [2, 5]: 0.0 (0) % (n); Infections and infestations [2, 5]: 36.2 (17) % (n); Injury, poisoning and procedural complications [2, 5]: 17.0 (8) % (n); Investigations [2, 5]: 0.0 (0) % (n); Metabolism and nutrition disorders [2, 5]: 8.5 (4) % (n); Neoplasms benign, malignant and unspecified (incl. cysts and polyps) [2, 5]: 0.0 (0) % (n); Nervous system disorders [2, 5]: 6.4 (3) % (n); Psychiatric disorders [2, 5]: 4.3 (2) % (n); Renal and urinary disorders [2, 5]: 0.0 (0) % (n); Respiratory, thoracic and mediastinal disorders [2, 5]: 4.3 (2) % (n); Vascular disorders [2, 5]: 2.1 (1) % (n); Total Subjects With at Least One TEAE ([2]; follow-on study, safety follow-on population, HZT-501 N = 132, Ibuprofen N = 47): 68.1 (32) % (n); Proportion of subjects with Duodenal Ulcer [3, 6]: 9/190 (4.7%);; Proportion of subjects with Gastric Ulcer [3, 6]: 34/190 (17.9%);; Proportion of subjects with UGI Ulcer [3, 6]: 38/190 (20%);; UGI Ulcer: Subjects with Low-dose Aspirin Use [3, 6]: 6/23 (26.1%);; UGI Ulcer: Subjects with Prior Ulcer [3, 6]: 2/11 (18.2%);; Proportion of subjects with Duodenal Ulcer [3, 7]: 4.7%; Proportion of subjects with Gastric Ulcer [3, 7]: 17.9%; Proportion of subjects with UGI Ulcer [3, 7]: 20.0%; Proportion of subjects with Duodenal Ulcer [3, 8]: 6.6%; Proportion of subjects with Gastric Ulcer [3, 8]: 19.7%; Proportion of subjects with UGI Ulcer [3, 8]: 22.6%; UGI Ulcer: Subjects with Prior Ulcer [3, 8]: 20.0%; Proportion of subjects with Duodenal Ulcer [3, 9]: 6.6%; Proportion of subjects with Gastric Ulcer [3, 9]: 19.7%; Proportion of subjects with UGI Ulcer [3, 9]: 22.6%; Crude ulcer rate, UGI ulcers ([3]; REDUCE-2, early drop-outs imputed as treatment failures): 25.3%; Crude ulcer rate, duodenal ulcer [3, 10]: 10.1%; Crude ulcer rate, gastric ulcer [3, 10]: 23.2%

Reference: patent US20130078287A1 (Horizon Pharma USA, Inc., priority 2010, published 2013)
